Reference: publication PMC11062894, “Protein-based bandpass filters for controlling cellular signaling with chemical inputs” (Nature Chemical Biology, 2023)
Values joined by “and” are separate entries in the source; they are usually repeats but may differ in a detail not shown here. Identical values can stand only once.

What was measured:
[1] = target: GEMS with the dual-drug-controlled (venetoclax, A-1155463) switch (BclXL and Bcl2–LD3) in HEK293T cells (Homo sapiens, UniProt P10415); experiment: GEMS SEAP reporter assay, dual-drug-controlled (venetoclax, A-1155463) switch; type: cell-based
Protocol: (§1) HEK293T cells were seeded in a 96-well plate 24 h before transfection. The transfection mix in each well consisted of 3 ng of constitutive human CMV promoter driven mammalian STAT3 expression vector (PhCMV-STAT3-pA), 30 ng of STAT3-induced reporter expression (OStat3-PhCMVmin-SEAP-pA) and 50 ng of expression vectors for each GEMS receptor chain (PSV40-IgK-(drughigh receptor)-EpoRm-IL-6RBm-pA and PSV40-IgK-(druglow receptor-GGGGSX3-LD3)-EpoRm-IL-6RBm-pA). For the specific drughigh receptor and druglow receptor used in the different cellular assays, they are indicated as wild type or with mutations. Then, plasmid DNA was mixed with 50 μl opti-MEM (Thermo Fisher) and 600 ng of polyethyleneimine (Polysciences, catalog no. 24765-1). For drug treatment experiments, drugs were added 12 h post-transfection and incubated with cells for 24 h before the SEAP reporter detection assay.
(§2) SEAP activity (U l^−1) in cell culture supernatants was quantified by kinetic measurements at 405 nm (1 minute per measurement for 30 cycles) of absorbance increase due to phosphatase-mediated hydrolysis of para-nitrophenyl phosphate (pNPP).
(§3) Binding affinities of SPR drug competition assays were calculated using three-parameter nonlinear regression in GraphPad Prism (v.8.3.0). Representative data of cell assays are presented as individual values and mean values (bars). n = 3 refers to biological replicates. All IC50 or EC50 values of cell assays reported were calculated using four-parameter nonlinear regression ± s.d. Bandpass features of cutoff concentrations and Bandwidth90% were estimated based on the curve fitted using bell-shaped curve nonlinear regression in GraphPad Prism (v.8.3.0). […]

[2] = target: GEMS with the dual-drug-controlled (A-1155463, venetoclax) switch (Bcl2 and BclXL–LD3) in HEK293T cells (Homo sapiens, UniProt P10415); experiment: GEMS SEAP reporter assay, dual-drug-controlled (A-1155463, venetoclax) switch; type: cell-based; details: for SEAP (U/L): Figure 2c, OFF-phase
Description: In the first step, we sought to construct a dual-drug-controlled switch to test whether the ON and OFF switching processes can be combined in our receptor architecture. We used Bcl2 and BclXL as the orthogonal drug receptors, which interact with the LD3 protein and respond to their own specific inhibitors. In such a setting, the dual-drug-controlled switch will turn ON in response to one drug and OFF in response to the other, thus mimicking bandpass filtering behavior (Supplementary Fig. 1d). […] To test the switch behavior, we employed the generalizable extracellular molecule sensor (GEMS) platform, which senses extracellular molecules and thus regulates cell surface signaling pathways (Fig. 2a). This receptor platform is based on a mutated EpoR extracellular and transmembrane domain fused to an IL-6RB intracellular domain. Dimerization of EpoR extracellular domains is controlled by N-terminally fused inducible dimerization domains, which drive IL-6RB activation and STAT3 signaling. The Bcl2 and BclXL–LD3 complexes were fused to the extracellular EpoR domains. […] The dimerization of Bcl2 and LD3 causes EpoR extracellular domain dimerization and triggers JAK/STAT3 signaling. Active STAT3 drives the expression of a reporter protein (secreted alkaline phosphatase (SEAP)) controlled by a STAT3-dependent promoter.
as §1, §2
Binding affinities of SPR drug competition assays were calculated using three-parameter nonlinear regression in GraphPad Prism (v.8.3.0). Representative data of cell assays are presented as individual values and mean values (bars). n = 3 refers to biological replicates. All IC50 or EC50 values of cell assays reported were calculated using four-parameter nonlinear regression ± s.d. Bandpass features of cutoff concentrations and Bandwidth90% were estimated based on the curve fitted using bell-shaped curve nonlinear regression in GraphPad Prism (v.8.3.0).

Bcl2 = details: cited from earlier work
BclXL–LD3 interaction = BclXL–LD3 interaction (Homo sapiens, UniProt Q07817); experiment: SPR drug competition assay, BclXL–LD3; type: binding; details: for Normalization of Response units / Response units: BclXL, Supp Fig 2d
Bcl2–LD3 interaction = Bcl2–LD3 interaction (Homo sapiens, UniProt P10415); experiment: SPR drug competition assay, Bcl2–LD3; type: binding; details: Bcl2, Supp Fig 2d
Protocol: Drug IC50 values for disrupting heterodimers were measured on a Biacore 8K device. A 5 µM portion of analyte was mixed with 10 µM of BclXL or Bcl2 inhibitors according to the analyte. The mixtures of analyte and drug were injected onto the LD3 immobilized channel.
as §3
This assay is designed to test if the drug of interest can specifically disrupt the
interaction between LD3 and BclXL/Bcl2. The drug-receptors (Bcl2, BclXL) are immobilized on the
different channels of the sensor chip, then the binding sites are saturated with LD3. […]

GEMS with the dual-drug-controlled (A-1155463, venetoclax) switch (Bcl2 and BclXL–LD3) in HEK293T cells, sequence (Q07817 whole entry): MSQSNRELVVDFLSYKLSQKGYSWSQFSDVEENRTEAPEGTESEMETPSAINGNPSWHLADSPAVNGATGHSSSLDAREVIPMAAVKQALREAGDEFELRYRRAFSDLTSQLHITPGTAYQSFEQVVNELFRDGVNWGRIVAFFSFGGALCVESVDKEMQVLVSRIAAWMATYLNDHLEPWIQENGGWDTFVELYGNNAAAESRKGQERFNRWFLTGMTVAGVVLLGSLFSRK
GEMS with the dual-drug-controlled (A-1155463, venetoclax) switch (Bcl2 and BclXL–LD3) in HEK293T cells, sequence (P10415 whole entry): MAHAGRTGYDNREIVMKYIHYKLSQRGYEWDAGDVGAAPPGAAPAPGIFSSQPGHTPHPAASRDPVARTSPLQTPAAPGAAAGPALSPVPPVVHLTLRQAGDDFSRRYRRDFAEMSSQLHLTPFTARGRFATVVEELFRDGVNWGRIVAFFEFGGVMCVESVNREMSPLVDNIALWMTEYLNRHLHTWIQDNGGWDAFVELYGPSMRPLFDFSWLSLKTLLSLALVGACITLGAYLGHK
Bcl2–LD3 interaction, sequence (P10415 1-207 limits assumed): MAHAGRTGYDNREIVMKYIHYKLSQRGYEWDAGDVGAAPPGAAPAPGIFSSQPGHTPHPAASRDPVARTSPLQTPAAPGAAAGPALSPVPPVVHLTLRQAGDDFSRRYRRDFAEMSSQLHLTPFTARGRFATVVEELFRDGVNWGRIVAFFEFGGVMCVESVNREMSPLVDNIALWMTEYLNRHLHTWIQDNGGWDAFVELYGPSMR
BclXL–LD3 interaction, sequence (Q07817 1-209 limits assumed): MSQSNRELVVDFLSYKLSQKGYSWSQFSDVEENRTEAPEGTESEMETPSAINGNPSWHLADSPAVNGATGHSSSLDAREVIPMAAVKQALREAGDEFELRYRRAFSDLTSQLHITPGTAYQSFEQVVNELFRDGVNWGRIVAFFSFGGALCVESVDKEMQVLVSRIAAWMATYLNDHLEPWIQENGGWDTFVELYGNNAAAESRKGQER
GEMS with the dual-drug-controlled (venetoclax, A-1155463) switch (BclXL and Bcl2–LD3) in HEK293T cells, sequence (P10415 whole entry): as the sequence (P10415 whole entry) above
GEMS with the dual-drug-controlled (venetoclax, A-1155463) switch (BclXL and Bcl2–LD3) in HEK293T cells, sequence (Q07817 whole entry, further chain): as the sequence (Q07817 whole entry) above

Compound: CC1(C)CCC(CN2CCN(c3ccc(C(=O)NS(=O)(=O)c4ccc(NCC5CCOCC5)c([N+](=O)[O-])c4)c(Oc4cnc5[nH]ccc5c4)c3)CC2)=C(c2ccc(Cl)cc2)C1 [Venetoclax]
- increase in the ON phase [1]: close to tenfold
- SEAP (U/L) ([2]; Independent repeat, Venetoclax 0.001 nM): 294.62 U/L and 313.4 U/L and 319.588 U/L
- SEAP (U/L) ([2]; Independent repeat, Venetoclax 0.01 nM): 267.156 U/L and 307.848 U/L and 300.966 U/L
- SEAP (U/L) ([2]; Independent repeat, Venetoclax 0.1 nM): 225.991 U/L and 258.444 U/L and 342.296 U/L
- SEAP (U/L) ([2]; Independent repeat, Venetoclax 1 nM): 259.474 U/L and 200.825 U/L and 300.367 U/L
- SEAP (U/L) ([2]; Independent repeat, Venetoclax 10 nM): 304.021 U/L and 256.34 U/L and 345.499 U/L
- SEAP (U/L) ([2]; Independent repeat, Venetoclax 31.6 nM): 220.194 U/L and 208.431 U/L and 268.11 U/L
- SEAP (U/L) ([2]; Independent repeat, Venetoclax 100 nM): 193.21 U/L and 194.937 U/L and 240.35 U/L
- SEAP (U/L) ([2]; Independent repeat, Venetoclax 316 nM): 87.2098 U/L and 106.113 U/L and 133.634 U/L
- SEAP (U/L) ([2]; Independent repeat, Venetoclax 1000 nM): 44.9721 U/L and 57.2365 U/L and 51.9722 U/L
- SEAP (U/L) ([2]; Representative, Venetoclax 0.001 nM): 75.3746 U/L and 89.0712 U/L and 99.0049 U/L
- SEAP (U/L) ([2]; Representative, Venetoclax 0.01 nM): 85.1657 U/L and 70.1122 U/L and 89.4923 U/L
- SEAP (U/L) ([2]; Representative, Venetoclax 0.1 nM): 81.9771 U/L and 80.9297 U/L and 78.2538 U/L
- SEAP (U/L) ([2]; Representative, Venetoclax 1 nM): 69.1909 U/L and 65.9454 U/L and 68.5076 U/L
- SEAP (U/L) ([2]; Representative, Venetoclax 10 nM): 45.3899 U/L and 45.448 U/L and 63.5072 U/L
- SEAP (U/L) ([2]; Representative, Venetoclax 31.6 nM): 23.8212 U/L and 28.0484 U/L and 21.6764 U/L
- SEAP (U/L) ([2]; Representative, Venetoclax 100 nM): 11.359 U/L and 10.3713 U/L and 12.1034 U/L
- SEAP (U/L) ([2]; Representative, Venetoclax 316 nM): 9.4797 U/L and 7.067 U/L and 8.943 U/L
- SEAP (U/L) ([2]; Representative, Venetoclax 1000 nM): 8.365 U/L and 6.996 U/L and 8.215 U/L
- shut-down of reporter gene expression ([2]; adding 1 µM venetoclax to 100 nM A-1155463): effectively shut down
- affinity for Bcl2 stronger than for BclXL (Bcl2): 500 fold
- Normalization of Response units (BclXL–LD3 interaction; V 0.01): 100.685
- Response units (BclXL–LD3 interaction; V 0.01): 94.0092
- Normalization of Response units (BclXL–LD3 interaction; V 0.1): 99.7556
- Response units (BclXL–LD3 interaction; V 0.1): 93.1418
- Normalization of Response units (BclXL–LD3 interaction; V 1): 98.8448
- Response units (BclXL–LD3 interaction; V 1): 92.2914
- Normalization of Response units (BclXL–LD3 interaction; V 10): 97.5083
- Response units (BclXL–LD3 interaction; V 10): 91.0435
- Normalization of Response units (BclXL–LD3 interaction; V 100): 89.9423
- Response units (BclXL–LD3 interaction; V 100): 83.9791
- Normalization of Response units (BclXL–LD3 interaction; V 1000): 81.529
- Response units (BclXL–LD3 interaction; V 1000): 76.1236
- Normalization of Response units (BclXL–LD3 interaction; V 10000): 74.8321
- Response units (BclXL–LD3 interaction; V 10000): 69.8707
- effect on the BclXL–LD3 interaction (BclXL–LD3 interaction; SPR drug competition): not affecting
- Normalization of Response units (Bcl2–LD3 interaction; V 0.01): 100.745
- Response units (Bcl2–LD3 interaction; V 0.01): 7.1398
- Normalization of Response units (Bcl2–LD3 interaction; V 0.1): 100.312
- Response units (Bcl2–LD3 interaction; V 0.1): 7.1091
- Normalization of Response units (Bcl2–LD3 interaction; V 1): 96.9409
- Response units (Bcl2–LD3 interaction; V 1): 6.8702
- Normalization of Response units (Bcl2–LD3 interaction; V 10): 93.6659
- Response units (Bcl2–LD3 interaction; V 10): 6.6381
- Normalization of Response units (Bcl2–LD3 interaction; V 100): 74.5943
- Response units (Bcl2–LD3 interaction; V 100): 5.2865
- Normalization of Response units (Bcl2–LD3 interaction; V 1000): 57.566
- Response units (Bcl2–LD3 interaction; V 1000): 4.0797
- Normalization of Response units (Bcl2–LD3 interaction; V 10000): 38.8006
- Response units (Bcl2–LD3 interaction; V 10000): 2.7498
